Measured values published in patent publication US11254633B2, “Cannabis thin layer decarboxylation” (priority 2018, dated 2022).
Read-outs that look alike come from different tables or passages of the source.

Assays:
[1] = plant material in a 110° C. oven, Taschwer; cited from earlier work
[2] = cited from earlier work
5HT-1a receptor = biological target: T1, 5HT-1a receptor (Homo sapiens, UniProt P08908); conditions: CBD at >10 uM; cited from earlier work
T1 sequence (P08908 1-422): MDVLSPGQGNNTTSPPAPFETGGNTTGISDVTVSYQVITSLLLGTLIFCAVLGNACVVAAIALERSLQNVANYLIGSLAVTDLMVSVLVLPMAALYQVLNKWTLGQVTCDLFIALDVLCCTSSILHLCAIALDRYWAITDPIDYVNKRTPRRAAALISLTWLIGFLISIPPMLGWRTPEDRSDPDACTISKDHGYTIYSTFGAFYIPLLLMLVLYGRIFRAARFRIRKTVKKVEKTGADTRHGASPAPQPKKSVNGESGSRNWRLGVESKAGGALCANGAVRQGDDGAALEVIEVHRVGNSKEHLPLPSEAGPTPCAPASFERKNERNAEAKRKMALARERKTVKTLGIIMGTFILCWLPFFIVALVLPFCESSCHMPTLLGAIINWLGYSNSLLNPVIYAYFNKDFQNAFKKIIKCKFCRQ

[3] = test system: alpha1 adrenoreceptors and u-opioid receptors; conditions: CBD at 1-10 uM; cited from earlier work
[4] = CBD plasma concentration after dosing; assay type: in vivo
Method: The dosing of CBD for a given range of activity is predictable, Table 1. […] This is a desirable group of activities to select. CBD at one micromolar is equivalent to 0.3 ng per ML and 10 micromolar is equivalent to 3 ng per ML. AUC for CBD ranges widely for different subjects but reportedly averages about 4 ng hour per ML. A single dose of 4 mg would provide an average 0.16 ng/ml concentration over 24 hours. […] Thus in 80 mg dose would provide an average of 10 micromolar over 24 hours. A single dose would produce a single large peak with return to baseline within about 10 hours, again this is variable between individuals. It is known that as frequency of dosing increases the plasma concentration will approach a steady-state or constant value between doses, eliminating the large peaks and valleys associated with infrequent doses. A reasonable dosing schedule might be 25 mg CBD three times daily to achieve 75 mg daily, about 9.4 micromolar average, at the high end of the 1-10 uM range. Similarly a 2.5 mg dose every eight hours would yield an approximately 1 micromolar average concentration.

TRPV1 receptor = TRPV1 receptor (Homo sapiens, UniProt Q8NER1); conditions: CBD at 1-10 uM; cited from earlier work
Sequence of TRPV1 receptor (Q8NER1 whole entry): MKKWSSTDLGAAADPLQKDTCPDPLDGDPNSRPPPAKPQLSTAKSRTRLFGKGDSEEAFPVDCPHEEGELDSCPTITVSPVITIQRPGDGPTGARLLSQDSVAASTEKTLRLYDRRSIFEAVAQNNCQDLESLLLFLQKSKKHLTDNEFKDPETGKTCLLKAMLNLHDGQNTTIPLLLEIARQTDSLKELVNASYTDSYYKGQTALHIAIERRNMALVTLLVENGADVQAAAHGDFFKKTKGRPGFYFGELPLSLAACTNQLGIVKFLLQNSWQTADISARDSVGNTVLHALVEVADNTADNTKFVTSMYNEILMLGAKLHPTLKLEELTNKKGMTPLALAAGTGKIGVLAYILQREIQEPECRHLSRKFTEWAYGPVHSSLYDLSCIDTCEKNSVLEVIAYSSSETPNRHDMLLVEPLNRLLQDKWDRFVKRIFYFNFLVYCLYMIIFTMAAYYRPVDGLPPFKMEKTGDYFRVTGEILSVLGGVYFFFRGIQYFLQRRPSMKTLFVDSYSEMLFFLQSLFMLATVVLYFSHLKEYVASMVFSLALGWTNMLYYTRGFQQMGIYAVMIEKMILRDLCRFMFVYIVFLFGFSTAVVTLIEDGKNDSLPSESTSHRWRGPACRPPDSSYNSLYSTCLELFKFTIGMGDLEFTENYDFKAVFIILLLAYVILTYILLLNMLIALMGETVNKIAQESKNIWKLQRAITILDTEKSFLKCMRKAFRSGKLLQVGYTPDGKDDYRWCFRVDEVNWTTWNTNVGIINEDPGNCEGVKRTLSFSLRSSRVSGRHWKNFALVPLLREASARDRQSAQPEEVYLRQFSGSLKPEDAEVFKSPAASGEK

Human keratinocyte = conditions: CBD at 1-10 uM; cited from earlier work
Membrane = conditions: CBD at 1-10 uM; cited from earlier work
neuroprotection = conditions: CBD at 1-10 uM; cited from earlier work
[5] = cited from earlier work; remark: listed apart in the source
[6] = for time to full conversion (decarboxylation): thin layer, 400 deg F.
[7] = 110° C., FIG. 7, cited from earlier work
CB one receptor = CB one receptor (Homo sapiens, UniProt P21554); conditions: fold lower than THC; cited from earlier work
Sequence of CB one receptor (P21554 whole entry): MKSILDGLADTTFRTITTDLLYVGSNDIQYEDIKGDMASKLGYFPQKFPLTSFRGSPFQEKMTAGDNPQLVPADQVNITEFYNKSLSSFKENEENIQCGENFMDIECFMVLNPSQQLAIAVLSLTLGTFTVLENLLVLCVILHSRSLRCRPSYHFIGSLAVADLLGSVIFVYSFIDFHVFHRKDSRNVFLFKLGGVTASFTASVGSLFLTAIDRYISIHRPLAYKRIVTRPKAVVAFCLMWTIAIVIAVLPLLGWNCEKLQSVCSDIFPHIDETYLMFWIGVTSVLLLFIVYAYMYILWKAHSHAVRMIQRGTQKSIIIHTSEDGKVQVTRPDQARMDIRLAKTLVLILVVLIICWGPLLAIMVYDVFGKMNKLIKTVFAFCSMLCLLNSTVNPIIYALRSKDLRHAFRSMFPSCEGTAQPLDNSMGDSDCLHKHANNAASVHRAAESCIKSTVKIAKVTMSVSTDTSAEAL

CB 2 receptor = CB 2 receptor (Homo sapiens, UniProt P34972); conditions: fold higher than THC; cited from earlier work
Sequence of CB 2 receptor (P34972 whole entry): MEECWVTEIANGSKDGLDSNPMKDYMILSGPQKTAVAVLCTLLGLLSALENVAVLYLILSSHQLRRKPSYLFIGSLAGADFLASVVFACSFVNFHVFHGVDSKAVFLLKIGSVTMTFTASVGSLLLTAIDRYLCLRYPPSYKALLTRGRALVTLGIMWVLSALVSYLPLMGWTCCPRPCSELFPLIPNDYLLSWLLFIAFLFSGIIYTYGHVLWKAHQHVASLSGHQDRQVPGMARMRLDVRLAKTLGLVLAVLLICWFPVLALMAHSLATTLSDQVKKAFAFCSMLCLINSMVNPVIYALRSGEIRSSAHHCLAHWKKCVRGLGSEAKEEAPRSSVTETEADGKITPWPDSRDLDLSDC

onychomycosis = conditions: cited from earlier work
[8] = two-13-year-olds in one study; cited from earlier work
[9] = cited from earlier work; remark: listed apart in the source
pain patients = conditions: initial studies in pain patients; cited from earlier work
[10] = aqueous; cited from earlier work
[11] = 100° C. and 110° C., FIG. 6C, 6D, sum decreases significantly

C=C(C)[C@@H]1CCC(C)=C[C@H]1c1c(O)cc(CCCCC)cc1O [CBD, cannabidiol]
time to peak CBD [1]: 135 min | degradation judged from sum of CBDA and CBD concentration ([2]; 80° C. and 90° C., FIG. 6A, 6B): no degradation | degradation judged from sum of CBDA and CBD concentration [2, 11]: loss | time to peak CBD ([2]; 110° C., cannabis oil in an open vial in an oven, FIG. 6D): 90 min | loss of converted CBD compared to the closed reactor at the same temperature ([2]; 120° open reactor, FIG. 6E): 45-55% | action induced by CBD: Ativated 5HT-1a receptor (5HT-1a receptor): 5HT-1a receptor | action induced by CBD: Decreased activation of alpha1 adrenoreceptors and u-opioid receptors [3]: Activation of alpha1 adrenoreceptors and u-opioid | average concentration ([4]; 2.5 mg dose every eight hours): approximately 1 micromolar | average concentration ([4]; 25 mg CBD three times daily, 75 mg daily): about 9.4 micromolar | average concentration over 24 hours ([4]; 80 mg dose): 10 µM | average concentration over 24 hours ([4]; 8 milligrams dose): 0.32 ng per ML | average concentration over 24 hours, as molarity ([4]; 8 milligrams dose): about one micromolar | average concentration over 24 hours ([4]; single dose of 4 mg): 0.16 ng/mL | action induced by CBD: Increased or activated TRPV1 receptor (TRPV1 receptor): TRPV1 receptor | action induced by CBD: Decreased human keratinocyte proliferation (Human keratinocyte): Human keratinocyte proliferation | action induced by CBD: Increased or activated Membrane stability (Membrane): Membrane stability | action induced by CBD: Increased or activated signs of neuroprotection (neuroprotection): Signs of neuroprotection | AUC for CBD, average ([5]; ranges widely for different subjects): about 4 ng hour per ML | return to baseline after a single dose ([5]; single dose, variable between individuals): ≤ 10 h

C=C(C)[C@@H]1CCC(C)=C[C@H]1c1c(O)cc(CCCCC)c(C(=O)O)c1O [CBDA]
degradation judged from sum of CBDA and CBD concentration ([2]; 80° C. and 90° C., FIG. 6A, 6B): no degradation | degradation judged from sum of CBDA and CBD concentration [2, 11]: loss | loss of CBDA ([2]; 120° C. open reactor, FIG. 6E, incomplete conversion to CBD): rapid loss | time to full conversion (decarboxylation) [6]: fully converted in under a minute

CCCCCc1cc(O)c(C/C=C(\C)CCC=C(C)C)c(O)c1C(=O)O [CBGA]
consumption of CBGA [7]: complete consumption

CCCCCc1cc(O)c(C/C=C(\C)CCC=C(C)C)c(O)c1 [CBG]
loss of total CBG ([7]; in the time decarboxylation is maximized): 50%

CCCCCc1cc(O)c2c(c1)OC(C)(C)c1ccc(C)cc1-2 [CBN]
affinity for CB one receptor, lower than THC (CB one receptor): 2 fold | affinity for CB 2 receptor, higher than THC (CB 2 receptor): 3 fold

C=C1CC[C@H]2O[C@]2(C)CC[C@@H]2[C@@H]1CC2(C)C [Caryophyllene Oxide]
time in which effective in onychomycosis (onychomycosis; at 8% concentration): 15 days | clinical onychomycosis efficacy versus reference drugs (onychomycosis; in vivo): efficacy similar to cyclopiroxolamine and sulconazole

CCCCCc1cc(O)c2c(c1)OC(C)(C)[C@@H]1CC=C(C)C[C@@H]21 [Delta 8 THC]
psychoactive effect [8]: no psychoactive effect

CCCCCc1cc2c(c(O)c1C(=O)O)[C@@H]1C=C(C)CC[C@H]1C(C)(C)O2 [THCA]
time to full conversion (decarboxylation) [6]: fully converted in under a minute

CCCCCc1cc(O)c2c(c1)OC(C)(C)[C@@H]1CCC(C)=C[C@@H]21 [THC]
loss of total THC (THC A+ THC) from the starting condition ([2]; 120° C. closed reactor): approximately 10% | loss of THC relative to 120° C. closed reactor ([2]; open reactor, 100° C. (212° F.), FIG. 6C): about 28% | loss compared to that maximally achieved at 120° C. in the closed reactor ([2]; open reactor, 110° C. (230° F.), FIG. 6d): about 28% | THC remaining ([6]; 20 min): only a trace | anti-inflammatory activity relative to hydrocortisone ([9]; relative to hydrocortisone): two times | anti-inflammatory activity relative to aspirin ([9]; times the activity of aspirin): 20 times | analgesic effect in pain patients (pain patients): provided analgesic effects | concentration at which THC saturates in cannabis tea [10]: about 10 mg/L
